Values joined by “and” are separate entries in the source; they are usually repeats but may differ in a detail not shown here. Equal values may be shown once. Bounds are passed on as bounds.

The values that follow come from article PMC5041982, “Small-molecule inhibition of STAT3 in radioresistant head and neck squamous cell carcinoma” (Oncotarget, 2016).

Test [1] addresses STAT3 (Homo sapiens, UniProt P40763). As to the kind of experiment: STAT3/pY-peptide binding surface plasmon resonance (SPR) assay. As to conditions: for Inhibition of STAT3 binding to pY-peptide compared with C188: SPR; for IC50: STAT3 200 nM, EGFR pY1068 dodecapeptide, mean, n ≥ 2, read-out: pY-Peptide Binding (SPR) IC50. The method, then: The equilibrium binding levels obtained ± compound were normalized (resonance obtained in the presence of compound ÷ the resonance obtained in the absence of compound × 100) and plotted against Log [nM] […] B. Inhibition of ligand-stimulated STAT phosphorylation, measured by phosphoflow. Serum-starved (1 hour) Kasumi-1 cells, pre-incubated with compound/DMSO (1 hour), were treated with G-CSF (10 ng/ml, 15 min, left two panels) or IFN-γ (10ng/ml, 15 min, right panel). Cells were permeabilized and stained with Alexa647-pSTAT3, and PE-pSTAT1 antibodies and analyzed on BD LSR2. FCS files were uploaded to Cytobank for pSTAT3 and pSTAT1 quantitation. Histograms depicting pSTAT3 and pSTAT1 levels are shown. C. Mean fluorescence (pSTAT3/1) levels were plotted as function the Log [M] compound, and IC50 calculated using GraphPad. […] D. Inhibition of ligand-stimulated STAT phosphorylation, measured by Luminex. Serum-starved (1 hour) Kasumi-1 cells, pre-incubated with compound/DMSO (0/0.1/0.3/1/3/10/100 μM, 1 hour), were treated with G-CSF (10 ng/ml, 15′). Total protein extracts of cells were assayed for pSTAT3, pSTAT1, and GAPDH levels by Luminex. GAPDH-normalized pSTAT3 or pSTAT1 values were divided by this ratio for untreated cells and expressed in percentage. These values were plotted as a function of Log [M] compound, and IC50 values calculated using GraphPad. […]
3-D pharmacophore sorting used to evaluate the effect of each compound on STAT3 binding. Responses were normalized by dividing the […]
fingerprint screening were converted into 3-D structures compounds at 2 min and multiplying by 100. IC values […]
for analysis as described below. were determined by plotting % maximum response as a 3-D pharmacophore generation function of log concentration of compound and fitting the Each molecular chemical feature, including experimental points to a competitive binding model using hydrogen bond donor, hydrogen bond acceptor, positive a four parameter logistic equation: R = Rhigh − (Rhigh − R low)/ (1 + conc/A1)^A2, where R = percent response at and negative ionizable group, and hydrophobic region, inhibitor concentration, R = percent response with no was generated using the LigandScout application compound, R= percent response at highest compound high framework and projected into 3-D space. concentration, A2 = fitting parameter (slope) and A1 = low Feature-pairing IC50 (BIAevaluation Software version 4.1). The inhibition Each chemical feature was converted into distance constant (Ki) was derived from the Cheng-Prusoff bin and the complete set of distance bins used to construct equation Ki=IC50/(1+[C]/Kd) as used by Halling et al a cost matrix. The most favorable pairing based on cost where C stands for STAT3 concentration used in the SPR matrix was identified. assay and Kd denotes the dissociation constant for STAT3 3-D pharmacophore transformation binding to its phosphorylated EGFR ligand in the SPR […]
STAT3/pY-peptide binding assay and total protein extracted from cell pellets. […]
STAT3 binding assays were performed at 25 °C (Millipore, Danvers, MA) coupled to antibody against

Test [2] addresses T1, pSTAT1 (Tyr-701) (Homo sapiens, UniProt P42224).
T1 construct: endogenous in cells; host or cells: Kasumi-1
T1 sequence (P42224 1-750): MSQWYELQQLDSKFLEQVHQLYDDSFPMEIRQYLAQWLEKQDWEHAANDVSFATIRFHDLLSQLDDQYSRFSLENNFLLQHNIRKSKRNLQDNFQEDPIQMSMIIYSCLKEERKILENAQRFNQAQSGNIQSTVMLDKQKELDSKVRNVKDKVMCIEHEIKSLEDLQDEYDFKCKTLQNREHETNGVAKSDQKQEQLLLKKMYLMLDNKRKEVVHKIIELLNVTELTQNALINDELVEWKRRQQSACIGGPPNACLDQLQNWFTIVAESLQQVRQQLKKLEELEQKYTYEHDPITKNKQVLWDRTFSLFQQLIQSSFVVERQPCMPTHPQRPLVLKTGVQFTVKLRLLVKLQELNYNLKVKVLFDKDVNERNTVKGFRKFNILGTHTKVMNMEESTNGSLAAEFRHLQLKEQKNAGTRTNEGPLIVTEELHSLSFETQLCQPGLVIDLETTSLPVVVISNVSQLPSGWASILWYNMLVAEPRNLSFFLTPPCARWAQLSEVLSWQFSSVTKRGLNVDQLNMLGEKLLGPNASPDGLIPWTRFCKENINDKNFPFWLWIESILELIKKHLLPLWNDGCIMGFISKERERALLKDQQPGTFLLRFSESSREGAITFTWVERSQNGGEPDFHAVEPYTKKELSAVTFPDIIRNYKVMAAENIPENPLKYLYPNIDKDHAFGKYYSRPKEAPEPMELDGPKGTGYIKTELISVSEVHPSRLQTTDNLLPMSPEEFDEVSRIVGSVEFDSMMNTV
Nature of the test: Phosphoflow, IFN-γ-induced pSTAT1 in Kasumi-1 cells. It counts as cell-based. As to conditions: Kasumi-1, IFN-γ 10 ng/ml 15 min; mean, n ≥ 2; read-out: Ligand Induced Phosphorylation (Phosphoflow) pSTAT1 (IFN-γ) IC50. As for the experimental part:
(§1) The equilibrium binding levels obtained ± compound were normalized (resonance obtained in the presence of compound ÷ the resonance obtained in the absence of compound × 100) and plotted against Log [nM] […] B. Inhibition of ligand-stimulated STAT phosphorylation, measured by phosphoflow. Serum-starved (1 hour) Kasumi-1 cells, pre-incubated with compound/DMSO (1 hour), were treated with G-CSF (10 ng/ml, 15 min, left two panels) or IFN-γ (10ng/ml, 15 min, right panel). Cells were permeabilized and stained with Alexa647-pSTAT3, and PE-pSTAT1 antibodies and analyzed on BD LSR2. FCS files were uploaded to Cytobank for pSTAT3 and pSTAT1 quantitation. Histograms depicting pSTAT3 and pSTAT1 levels are shown. C. Mean fluorescence (pSTAT3/1) levels were plotted as function the Log [M] compound, and IC50 calculated using GraphPad. […] D. Inhibition of ligand-stimulated STAT phosphorylation, measured by Luminex. Serum-starved (1 hour) Kasumi-1 cells, pre-incubated with compound/DMSO (0/0.1/0.3/1/3/10/100 μM, 1 hour), were treated with G-CSF (10 ng/ml, 15′). Total protein extracts of cells were assayed for pSTAT3, pSTAT1, and GAPDH levels by Luminex. GAPDH-normalized pSTAT3 or pSTAT1 values were divided by this ratio for untreated cells and expressed in percentage. These values were plotted as a function of Log [M] compound, and IC50 values calculated using GraphPad.
(§2) Phosphoflow analysis was done as described in Xu et al. Briefly, Kasumi-1 cells, were serum-starved, pre-treated with compound or DMSO (1 hour, RT) and then stimulated with 20 μl of GCSF (10 ng/ml) for 15 minutes at 37°C. The cells were then permeabilized and stained with Alexa647-pSTAT3, Alexa488-pSTAT5 and PE-pSTAT1 antibodies and analyzed using the BD LSR2. FCS files were exported and uploaded to Cytobank for determination of phosphoproteins as earlier. Gating was done on live, single cells and then gates selected for positive ligand-activated pSTAT3 and pSTAT1. IC50 values were calculated using the GraphPad Prism.

Test [3] concerns the target T2, pSTAT3 (Tyr-705) (Homo sapiens, UniProt P40763).
T2 construct: endogenous in cells; host or cells: Kasumi-1
As to the kind of experiment: Phosphoflow, G-CSF-induced STAT3 phosphorylation in Kasumi-1 cells. It counts as cell-based. As to conditions: Kasumi-1, G-CSF 10 ng/ml 15 min; mean, n ≥ 2; read-out: Ligand Induced Phosphorylation (Phosphoflow) pSTAT3 (GCSF) IC50. The method, then:
as §1, §2

In test [4] the test system is pSTAT5. As to the kind of experiment: Phosphoflow, G-CSF-induced pSTAT5 in Kasumi-1 cells. It counts as cell-based. As to conditions: mean, n ≥ 2, read-out: Ligand Induced Phosphorylation (Phosphoflow) pSTAT5 (G-CSF) IC50. The method, then:
as §2

Sequence of STAT3 (P40763 whole entry, species assumed): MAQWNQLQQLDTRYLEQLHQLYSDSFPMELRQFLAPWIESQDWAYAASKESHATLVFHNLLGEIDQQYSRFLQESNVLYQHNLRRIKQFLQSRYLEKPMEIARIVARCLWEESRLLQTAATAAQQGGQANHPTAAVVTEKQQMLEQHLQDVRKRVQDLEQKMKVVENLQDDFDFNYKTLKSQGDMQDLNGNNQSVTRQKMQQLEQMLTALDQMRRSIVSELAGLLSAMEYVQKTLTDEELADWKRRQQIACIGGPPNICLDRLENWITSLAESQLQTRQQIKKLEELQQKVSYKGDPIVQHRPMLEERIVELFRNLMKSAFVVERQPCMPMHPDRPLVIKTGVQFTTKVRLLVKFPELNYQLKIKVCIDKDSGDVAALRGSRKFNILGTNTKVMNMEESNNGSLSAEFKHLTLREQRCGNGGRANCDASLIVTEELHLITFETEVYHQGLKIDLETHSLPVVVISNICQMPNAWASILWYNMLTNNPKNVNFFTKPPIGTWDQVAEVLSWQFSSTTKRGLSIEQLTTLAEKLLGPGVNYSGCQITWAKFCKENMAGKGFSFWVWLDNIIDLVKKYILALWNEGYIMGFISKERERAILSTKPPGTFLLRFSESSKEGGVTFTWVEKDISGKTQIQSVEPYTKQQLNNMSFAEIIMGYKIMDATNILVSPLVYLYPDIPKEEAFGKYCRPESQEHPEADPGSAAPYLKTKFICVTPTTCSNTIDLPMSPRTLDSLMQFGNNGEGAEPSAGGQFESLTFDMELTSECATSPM
T2 sequence (P40763 whole entry): as the sequence (P40763 whole entry, species assumed) above

`O=[N+]([O-])c1cccc(S(=O)(=O)Nc2cc(Sc3nc4ccccc4s3)c(O)c3ccccc23)c1` [Compound C188-1]: the “Inhibition of STAT3 binding to pY-peptide compared with C188” value (“Inhibition … compared with C188” for short) in test [1] is on record as “improved inhibition”. The IC50 in test [1] is 5.5 ± 2.1 µM; in test [2] it was 50.5 ± 53 µM; in test [3] it was 16.2 ± 24.1 µM; in test [4], 1.5 µM.

For the compound `Cc1ccc(S(=O)(=O)Nc2cc(Sc3nc4ccccc4s3)c(O)c3ccccc23)c(C)c1` [Compound C188-2], the IC50 in test [1] came to 20 ± 9.9 µM; in test [2] it was 51 µM; in test [3] it was 29.8 ± 25.9 µM; in test [4], 35 ± 29.7 µM.

`Cc1cc(C)c(S(=O)(=O)Nc2cc(C(C(=O)OC(C)C)C(=O)C(F)(F)F)c(O)c3ccccc23)c(C)c1` (stereo not shown) [Compound C188-3]: the IC50 stood at 17.3 ± 8.5 µM in test [1], 34.5 ± 10.6 µM in test [2], 21.6 ± 11.1 µM in test [3] and 21 µM in test [4].

Regarding `CC(C)OC(=O)C(C(=O)C(F)(F)F)c1cc(NS(=O)(=O)c2ccc(Br)cc2)c2ccccc2c1O` (stereo not shown) [Compound C188-4], the IC50 amounted to 21.5 ± 21.9 µM in test [1], 29 µM in test [2] and 11 ± 1.4 µM in test [3].

Regarding `CC(C)OC(=O)C(C(=O)C(F)(F)F)c1cc(NS(=O)(=O)c2ccc(Cl)cc2)c2ccccc2c1O` (stereo not shown) [Compound C188-5], the IC50 is 11.5 ± 7.8 µM in test [1], 27 ± 1.4 µM in test [3] and above 300 µM in test [4].

Turning to `CC(C)OC(=O)C(C(=O)C(F)(F)F)c1cc(NS(=O)(=O)c2ccccc2)c2ccccc2c1O` (stereo not shown) [Compound C188-6], the values for the IC50 in test [1] and in test [3] were 16 ± 15.6 µM and 23.5 ± 6.4 µM, respectively.

As to `Cc1cc(C)c(S(=O)(=O)Nc2cc(Cl)c(O)c3ccccc23)cc1C` [Compound C188-10], the “Inhibition … compared with C188” value in test [1] was “activity similar to C188”. Further, the IC50 in test [1] was 8 ± 2.8 µM; in test [2], above 300 µM; in test [3] it was above 300 µM; in test [4], above 300 µM.

`CC(=O)c1c(C)oc2c1cc(NS(=O)(=O)c1cc(C)ccc1C)c1ccccc12` [Compound C188-11]: the IC50 in test [1] is 55 µM and 54.5 µM; in test [2], above 300 µM; in test [3] it was above 300 µM; in test [4], above 300 µM.

Consider `CC(=O)Nc1c([N+](=O)[O-])cc(NS(=O)(=O)c2ccccc2)c2ccccc12` [Compound C188-12], for which the IC50 in test [1], in test [2], in test [3] and in test [4] was above 300 µM each time.

On to `CC(=O)Nc1c([N+](=O)[O-])cc(N(C(C)=O)S(=O)(=O)c2ccccc2)c2ccccc12` [Compound C188-13], for which the half-inhibitory concentration (IC50) was 280 ± 41 µM in test [1], above 300 µM in test [2] and above 300 µM in test [4].

On to `O=S(=O)(Nc1cc(Sc2ccccc2)c(O)c2ccccc12)c1ccc(F)cc1` [Compound C188-16], for which the “Inhibition … compared with C188” value in test [1] was “improved inhibition”. Further, the results for the IC50 in test [1], in test [2] and in test [4] were 4 µM, above 300 µM and above 300 µM, respectively.

With `O=S(=O)(Nc1cc(Sc2nc[nH]n2)c(O)c2ccccc12)c1ccc(F)cc1` [Compound C188-17], the “Inhibition … compared with C188” value in test [1] is listed as “improved inhibition”. Further, the IC50 in test [1] was 3.5 ± 2.1 µM; in test [2] it was above 300 µM; in test [3] it was above 300 µM.

Turning to `O=S(=O)(Nc1ccc(O)c2ccccc12)c1ccccc1` [Compound C188-21], the IC50 was above 300 µM in test [1], above 300 µM in test [2] and 15 ± 17 µM in test [3].

Consider `Cc1ccc(S(=O)(=O)Nc2cc3c4c(oc3c3ccccc23)CCC(C(C)(C)C)C4)c(C)c1` (stereo not shown) [Compound C188-26], for which the IC50 in test [1] is 89 ± 2.8 µM; in test [4] it was above 300 µM.

With `O=S(=O)(Nc1ccc(O)c2ccccc12)c1ccc(F)cc1` [Compound C188-27], the half-inhibitory concentration (IC50) in test [1], in test [2] and in test [4] was above 300 µM each time.

Turning to `CC(=O)Oc1c(Br)cc(N(C(C)=O)S(=O)(=O)c2ccc(C)cc2)c2ccccc12` [Compound C188-28], the IC50 in test [1] is 71 ± 33.9 µM; in test [2] it was 10 µM; in test [4], above 300 µM.

For the compound `COCc1oc2c(cc(NS(=O)(=O)c3ccc(F)cc3)c3ccccc32)c1C(=O)OC` [Compound C188-29], the values for the IC50 in test [1], in test [2] and in test [4] were 27.5 ± 10.6 µM, above 300 µM and above 300 µM, respectively.

Take `CCOC(=O)c1c(C)oc2c1cc(NS(=O)(=O)c1ccc(C(C)(C)C)cc1)c1ccccc12` [Compound C188-35]: the concentration for half-maximal inhibition (IC50) is 25.5 ± 6.4 µM in test [1], above 300 µM in test [2] and above 300 µM in test [4].

`COc1ccc(S(=O)(=O)Nc2cc(Sc3cccc4cccnc34)c(O)c3ccccc23)cc1` [Compound C188-38]: the IC50 was 18.5 ± 9.2 µM in test [1] and above 300 µM in test [2].
